Experimental findings from US9789096B2, “Methods and compositions for selective and targeted cancer therapy” (Board of Regents of the University of Texas System, priority 2013, dated 2017) are described below.

pIC50: −log10 of the molar value. Where two headings read alike, the source gives them in different places.

Assay type in all cases: cell-based, human
One experiment concerns H2009. Nature of the experiment: Cell viability dose-response, H2009. Particulars: Homo sapiens; for pIC50 / IC50: NCI-H2009; for pIC50 / AC50: 12-point dose-response starting at 50 micromolar; for pIC50: 3-fold increments, in duplicate, read-out: toxicity data, H2009; for AC50: NCI-H2009, Table 8; for IC50: Tables 3 and 4, read-out: IC50 (uM) vs indicated non-small cell lung cancer cell line H2009. How it is done: (§1) FIG. 6A. […] Cell viability is plotted vs. compound concentration. Compound was added to cells plated at 15% confluence in 96-well plates in RPMI-1640 media supplemented with 5% Fetal Bovine Serum and 2 mM L-Glutamine. After 4 days of incubation, ATP levels were measured using Cell Titer Glo (Promega). Data are presented as the average of 2 replicates ±SEM.
(§2) Selectivity may be measured by the half maximal inhibitory concentration (IC50), which, as used herein, is a measure of the effectiveness of a compound in killing cells. This quantitative measure indicates how much of a particular compound is needed to kill a particular cell population by half (e.g., as indicated by the amount of ATP). […] The IC50 can be determined by constructing a dose-response curve. The lower the IC50, the higher the potency, and the greater the difference between IC50 values for different cell lines (e.g., sensitive lines vs. insensitive lines, and sensitive lines vs. normal lines) the greater the selectivity. […]
(§3) With this information, we synthesized and tested a series of small molecules derived in conception from the oxalamide and chromone scaffold including N-acyl ureas, as shown in Tables 6-8. Each compound was tested in a 12-point dose-response study starting at 50 micromolar and decreasing in 3-fold increments to sub-nanomolar concentrations, in duplicate. Additionally, one or more additional cell line was tested in the same way.

Another experiment concerns H2122. Nature of the experiment: Cell viability dose-response, H2122. The note with it: Homo sapiens; for AC50: NCI-H2122, Table 8, 12-point dose-response starting at 50 micromolar; for IC50: NCI-H2122, Tables 3 and 4, read-out: IC50 (uM) vs indicated non-small cell lung cancer cell line H2122. In short, it runs like this: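 Viability read as total ATP (Cell Titer Glo) following 4 days' compound exposure, with IC50 derived from dose-response curves. Duplicate 12-point series, top concentration 50 micromolar with 3-fold steps, on cells seeded at 15% confluence in RPMI-1640, 5% FBS, 2 mM L-glutamine.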

The next experiment deals with HCC44. Nature of the experiment: Cell viability dose-response, HCC44. The note with it: Homo sapiens; for pIC50: HCC44, 12-point dose-response starting at 50 micromolar, 3-fold increments, in duplicate, read-out: toxicity data, HCC44; for AC50: HCC44, Table 8, 12-point dose-response starting at 50 micromolar; for IC50: HCC44, Tables 3 and 4, read-out: IC50 (uM) vs indicated non-small cell lung cancer cell line HCC44. Here is the method: as §1, §2, §3

The mark [1] stands for this setting: NCI-H2122, 12-point dose-response starting at 50 micromolar, 3-fold increments, in duplicate, read-out: toxicity data, H2122.
The mark [2] stands for this setting: NCI-H2122, Table 9, competitor, read-out: IC50 to H2122 cells.

For the compound `COC(=O)c1ccc(C(=O)NC(=O)NCCc2ccc(OC)cc2)cc1` [SW208390-1-A], the pIC50 with H2009, with H2122 (setting [1]) and in the experiment with HCC44 was no more than 4.31 each time.
As to `COc1ccc(CC(=O)Nc2ccc(C(=O)c3ccccc3)cc2)cc1` [SW208583-1-A], the pIC50 in the experiment on H2009 was no more than 4.31; in the experiment with H2122 (setting [1]), 5.47; in the experiment on HCC44, 5.37.
Turning to `COc1ccc(CCNC(=O)NC(=O)c2ccc(C(=O)Nc3ccc(OC)cc3)cc2)cc1` [SW208411-1-A], the pIC50 in the experiment on H2009, in the experiment with H2122 (setting [1]) and with HCC44 was no more than 4.31 throughout.
In general, AC50 refers to the concentration at which the activity in the assay is half-maximal. Turning to `Cc1ccc(/C=C/c2coc3cc(OCc4cnn(-c5ccccc5)c4)ccc3c2=O)cc1` [SW208758-1], the figures for the AC50 with H2009, in the experiment with H2122 and in the experiment on HCC44 were 16.5 µM, no less than 49.5 µM and 49.5 µM, respectively.
Usually IC50 stands for the concentration at which inhibition is half-maximal. For `O=C(Nc1nc(-c2ccccc2)cs1)c1ccc(C(=O)c2ccccc2)cc1` [SW209018], the IC50 is 14.8 µM with H2009, 4.73 µM with H2122 and 49.5 µM with HCC44.
For `COc1ccc(CCNC(=O)NC(=O)c2ccc(C(=O)N3CCCCC3)cc2)cc1` [SW208397-1-A], the pIC50 is 4.78 in the experiment with H2009, 5.64 in the experiment with H2122 (setting [1]) and no more than 4.31 in the experiment on HCC44.
`COc1ccc(CCNC(=O)NC(=O)c2ccc(C(=O)N(C)C)cc2)cc1` [SW208455-1-A]: the pIC50 in the experiment on H2009 was 4.78; in the experiment with H2122 (setting [1]), no more than 4.31; in the experiment on H2122 (setting [2]), 6.10; with HCC44, no more than 4.31.
On to `COc1ccc(CCCCC(=O)Nc2ccc(C(=O)c3ccccc3)cc2)cc1` [SW208480-1-A], for which the pIC50 in the experiment on H2009 is no more than 4.31; in the experiment with H2122 (setting [1]), 5.60; in the experiment with HCC44 it was 5.85.
On to `COc1ccc(CCNC(=O)NC(=O)c2ccc(-c3ccc(OC)cc3)cc2)cc1` [SW208387-1-A], for which the pIC50 with H2009 was no more than 4.31; in the experiment on H2122 (setting [1]), 6.74; in the experiment with HCC44, 6.60.
For `COc1ccc(CCNC(=O)NC(=O)c2ccc(C(=O)Nc3ccccc3)cc2)cc1` [SW208398-1-A], the values for the pIC50 in the experiment on H2009, in the experiment with H2122 (setting [1]) and in the experiment on HCC44 were 4.78, 6.44 and no more than 4.31, respectively.
For `COc1ccc(CCNC(=O)NC(=O)c2ccc(Nc3ccccc3)cc2)cc1` [SW208561-1-A], the pIC50 in the experiment on H2009 is 6.06; in the experiment with H2122 (setting [1]) it was 7.10; in the experiment on H2122 (setting [2]), 7.12; in the experiment on HCC44, 7.52.
Turning to `c1ccc(-n2cc(COc3ccc4cc(OCc5cnn(-c6ccccc6)c5)ccc4c3)cn2)cc1` [SW 208630-1], the half-maximal activity concentration (AC50) in the experiment with H2009 is 49.5 µM; with H2122, no less than 49.5 µM; with HCC44, 49.5 µM.
`O=c1c(Oc2ccc(F)cc2)coc2cc(OCc3cnn(-c4ccccc4)c3)ccc12` [SW 208591-1]: the AC50 in the experiment with H2009 is 16 µM; in the experiment on H2122 it was 0.15 µM; in the experiment on HCC44, 0.07 µM.
`COc1ccc(CCNC(=O)NC(=O)c2ccc(C(=O)c3ccc(OC)cc3)cc2)cc1` [SW208220-1-A]: the pIC50 with H2009 was no more than 4.31; in the experiment on H2122 (setting [1]) it was no more than 4.31; in the experiment with H2122 (setting [2]), 6.10; with HCC44, no more than 4.31.
For `O=c1c(Oc2ccccc2F)coc2cc(OCc3cn(-c4ccccc4)nn3)ccc12` [SW208232], the values for the AC50 in the experiment with H2009, in the experiment on H2122 and in the experiment with HCC44 were 49.5 µM, no less than 49.5 µM and 49.5 µM, respectively.
Turning to `O=c1c(Oc2cccc(F)c2)coc2cc(OCc3cnn(-c4ccccc4)c3)ccc12` [SW208592-1], the AC50 in the experiment on H2009 is 16.5 µM; in the experiment on H2122 it was 0.15 µM; with HCC44 it was 0.08 µM.
`COc1ccc(C(=O)Nc2ccc(C(=O)c3ccccc3)cc2)cc1` [SW208465-1-A]: the pIC50 in the experiment on H2009 was no more than 4.31; with H2122 (NCI-H2122, read-out: toxicity data, H2122) it was no more than 4.31; with HCC44 it was no more than 4.31.
In the case of `COc1ccc(CCNC(=O)NC(=O)c2ccc(-c3ccncc3)cc2)cc1` [SW208404-1-A], the pIC50 in the experiment with H2009 is no more than 4.31; in the experiment on H2122 (setting [1]), 4.66; with HCC44, no more than 4.31.
Take `COc1ccc(CCNC(=O)c2ccc(Cl)cc2)cc1` [SW208463-1-A]: the pIC50 with H2009, in the experiment on H2122 (setting [1]) and in the experiment with HCC44 was no more than 4.31 in each case.
`O=C(NCCc1ccc(O)cc1)NC(=O)c1ccc(C(=O)c2ccccc2)cc1` [SW208459-1-A]: the pIC50 is 6.52 in the experiment with H2009, 7.01 with H2122 (setting [1]), 7.42 in the experiment with H2122 (setting [2]) and 7.14 with HCC44.
Take `COc1ccc(CCNC(=O)NC(=O)c2ccc(Br)cc2)cc1` [SW208388-1-A]: the pIC50 in the experiment with H2009 was no more than 4.31; with H2122 (setting [1]), 6.80; in the experiment on HCC44, 6.38.
In the case of `O=C(Nc1nc2ccccc2s1)c1ccc(C(=O)c2ccccc2)cc1` [SW208652-1], the half-maximal inhibitory concentration (IC50) in the experiment on H2009 was 2.42 µM; in the experiment on H2122 it was 0.009 µM; with HCC44 it was 0.025 µM. Further, the pIC50 in the experiment with H2122 (setting [2]) was 8.19.
With `COc1ccc(-c2coc3cc(OCc4cnn(-c5ccccc5)c4)ccc3c2=O)cc1` [SW208759-1], the results for the AC50 with H2009, in the experiment with H2122 and in the experiment with HCC44 were 49.5 µM, no less than 49.5 µM and 49.5 µM, respectively.
In the case of `COc1ccc(CCNC(=O)NC(=O)c2cccc(Cl)c2)cc1` [SW208400-1-A], the pIC50 in the experiment on H2009, in the experiment with H2122 (setting [1]) and with HCC44 was no more than 4.31 throughout.
Consider `O=c1c(Oc2ccccc2F)coc2cc(OCc3cnn(-c4cccc(F)c4)c3)ccc12` [SW208467], for which the values for the AC50 in the experiment on H2009, in the experiment on H2122 and with HCC44 were 12.6 µM, no less than 49.5 µM and 49.5 µM, respectively.
For the compound `COc1ccc(CCNC(=O)NC(=O)c2cccc(OC)c2)cc1` [SW208403-1-A], the pIC50 was 4.37 in the experiment on H2009, 5.96 in the experiment with H2122 (setting [1]) and no more than 4.31 with HCC44.
Regarding `O=C(NCCc1ccc(O)cc1)NC(=O)c1ccc(COc2ccccc2)cc1` [SW208522-1-A], the pIC50 was 8.00 with H2009, 8.00 with H2122 (setting [1]), 7.32 in the experiment on H2122 (setting [2]) and 8.00 in the experiment with HCC44.
With `O=C(Nc1nc2ccc(OCCCCBr)cc2s1)c1ccc(C(=O)c2ccccc2)cc1` [SW 208236], the IC50 was 49.5 µM in the experiment with H2009, no less than 49.5 µM in the experiment on H2122 and 49.5 µM with HCC44.
For the compound `Cc1oc2cc(OCc3cnn(-c4ccccc4)c3)ccc2c(=O)c1Oc1ccccc1F` [SW 208587-1], the AC50 in the experiment with H2009 was 16.5 µM; with H2122, 0.39 µM; in the experiment on HCC44, 49.5 µM.
In the case of `COc1ccc(CCN(C)C(=O)NC(=O)c2ccc(C(=O)c3ccccc3)cc2)cc1` [SW208461-1-A], the pIC50 with H2009 is no more than 4.31; in the experiment with H2122 (setting [1]), 5.06; in the experiment with HCC44 it was no more than 4.31.
For the compound `COc1ccc(CCNC(=O)NC(=O)c2ccc(C(=O)N3CCN(C)CC3)cc2)cc1` [SW208414-1-A], the pIC50 in the experiment on H2009 is 5.30; in the experiment with H2122 (setting [1]), no more than 4.31; in the experiment with HCC44, no more than 4.31.
`COc1ccc(CNC(=O)c2ccc(Cl)cc2)cc1` [SW208464-1-A]: the pIC50 with H2009, in the experiment with H2122 (setting [1]) and in the experiment on HCC44 was no more than 4.31 throughout.
`COc1ccc(CCNC(=O)NC(=O)c2ccc(C(N)c3ccccc3)cc2)cc1` (stereo not shown) [SW208564-1-A]: the pIC50 with H2009 is 5.25; with H2122 (setting [1]), 6.49; in the experiment with HCC44 it was 7.22.
Regarding `COc1ccc(CCNC(=O)NC(=O)c2ccc(C(=O)Nc3cccc(OC)c3)cc2)cc1` [SW208410-1-A], the pIC50 with H2009 is 5.86; with H2122 (setting [1]) it was no more than 4.31; in the experiment on HCC44 it was no more than 4.31.
For `COc1cc2sc(NC(=O)c3ccc(C(=O)c4ccccc4)cc3)nc2cc1Br` [SW 208237], the IC50 in the experiment on H2009 was 6.9 µM; in the experiment with H2122, 0.61 µM; in the experiment with HCC44 it was 6.5 µM.
In the case of `O=c1c(-c2ccc(O)cc2)coc2cc(OCc3cnn(-c4ccccc4)c3)ccc12` [SW208757-1], the figures for the AC50 in the experiment with H2009, in the experiment with H2122 and with HCC44 were 5.63 µM, no less than 49.5 µM and 49.5 µM, respectively.
For the compound `COc1ccccc1C(=O)c1ccc(C(=O)NC(=O)NCCc2ccc(O)cc2)cc1` [SW208580-1-A], the pIC50 was 5.67 in the experiment with H2009, 5.02 in the experiment on H2122 (setting [1]), 6.10 in the experiment with H2122 (setting [2]) and 5.09 in the experiment on HCC44.
On to `O=C(Nc1ncc(-c2ccccc2)s1)c1ccc(C(=O)c2ccccc2)cc1` [SW209017], for which the IC50 in the experiment on H2009 was determined as 4.95 µM; in the experiment with H2122, 5.76 µM; in the experiment with HCC44, 49.5 µM.
